Measurements as given in PubChem BioAssay AID248 (DTP/NCI, 2004).
Values joined by “and” are separate entries in the source; they are usually repeats but may differ in a detail not shown here. Equal values may be shown once. Inconclusive results and toxic doses are left out.

System: L1210 leukemia ip in BDF1 mice, survival T/C
Experiment: NCI In Vivo Anticancer Drug Screen. Data for tumor model L1210 Leukemia (intraperitoneal) in B6D2F1 (BDF1) mice
Conditions: endpoint: mean survival time, higher = longer survival
Outline: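 Transplantable tumor model; survival measured in treated vs vehicle control mice. Value = treated/control.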

[1] = dose: 100.0 mg/kg/injection, schedule: Q01DX001 (ip), vehicle: saline
[2] = dose: 200.0 mg/kg/injection, schedule: Q01DX001 (ip), vehicle: saline
[3] = dose: 400.0 mg/kg/injection, schedule: Q01DX001 (ip), vehicle: saline
[4] = dose: 50.0 mg/kg/injection, schedule: Q01DX001 (ip), vehicle: carboxymethylcellulose (CMC)
[5] = dose: 100.0 mg/kg/injection, schedule: Q01DX001 (ip), vehicle: carboxymethylcellulose (CMC)
[6] = dose: 200.0 mg/kg/injection, schedule: Q01DX001 (ip), vehicle: carboxymethylcellulose (CMC)
[7] = dose: 400.0 mg/kg/injection, schedule: Q01DX001 (ip), vehicle: carboxymethylcellulose (CMC)
[8] = dose: 100.0 mg/kg/injection, schedule: Q04DX002 (ip), vehicle: Klucel (hydroxypropylcellulose) (HPC)
[9] = dose: 200.0 mg/kg/injection, schedule: Q04DX002 (ip), vehicle: Klucel (hydroxypropylcellulose) (HPC)
[10] = dose: 400.0 mg/kg/injection, schedule: Q04DX002 (ip), vehicle: Klucel (hydroxypropylcellulose) (HPC)
[11] = dose: 100.0 mg/kg/injection, schedule: Q04DX003 (ip), vehicle: saline
[12] = dose: 200.0 mg/kg/injection, schedule: Q04DX003 (ip), vehicle: saline
[13] = dose: 400.0 mg/kg/injection, schedule: Q04DX003 (ip), vehicle: saline
[14] = dose: 25.0 mg/kg/injection, schedule: Q04DX003 (ip), vehicle: Klucel (hydroxypropylcellulose) (HPC)
[15] = dose: 50.0 mg/kg/injection, schedule: Q04DX003 (ip), vehicle: Klucel (hydroxypropylcellulose) (HPC)
[16] = dose: 100.0 mg/kg/injection, schedule: Q01DX009 (ip), vehicle: Klucel (hydroxypropylcellulose) (HPC)
[17] = dose: 100.0 mg/kg/injection, schedule: Q04DX003 (ip), vehicle: Klucel (hydroxypropylcellulose) (HPC)
[18] = dose: 100.0 mg/kg/injection, schedule: Q04DX003 (ip), vehicle: saline with Tween-80
[19] = dose: 200.0 mg/kg/injection, schedule: Q04DX003 (ip), vehicle: saline with Tween-80
[20] = dose: 400.0 mg/kg/injection, schedule: Q04DX003 (ip), vehicle: saline with Tween-80
[21] = dose: 200.0 mg/kg/injection, schedule: Q01DX009 (ip), vehicle: Klucel (hydroxypropylcellulose) (HPC)

With O=C(Oc1cccc([N+](=O)[O-])c1)c1ccc([N+](=O)[O-])cc1O the T/C [1] was 95 % of control, the T/C [2] was 95 % of control and the T/C [3] was 97 % of control.

In the case of CCC/C=C(\C)C#CC1=CCCCC1, the T/C [4] was 97 % of control, the T/C [5] was 100 % of control and the T/C [6] was 94 % of control. The T/C [7] was 97 % of control.

In the case of O=C1CCC(=O)N1c1ccc(I)cc1, the T/C [4] was 96 % of control, the T/C [5] was 98 % of control and the T/C [6] was 93 % of control. For the same molecule, the T/C [7] was 107 % of control.

In the case of O=C(/C=C\c1ccc([N+](=O)[O-])cc1)OCCCCOC(=O)/C=C/c1ccc([N+](=O)[O-])cc1, the T/C (dose: 50.0 mg/kg/injection, schedule: Q01DX001 (ip), vehicle: saline) was 93 % of control, the T/C [1] was 96 % of control and the T/C [2] was 90 % of control. The T/C [3] was 87 % of control.

With O=C(O)COc1cc(F)ccc1[N+](=O)[O-] the T/C [8] was 91 % of control, the T/C [9] was 102 % of control and the T/C [10] was 107 % of control.

COc1ccc2c(c1O)C13C=C(C)C(=O)CC1C(C2)N(C)CC3 (stereo unspecified) was tested, and the T/C (dose: 75.0 mg/kg/injection, schedule: Q01DX001 (ip), vehicle: saline) was 106 % of control.

For COC(=O)c1cn[nH]c1/N=N/N(C)CCO, the T/C [1] was 113 % of control, the T/C [11] was 119 % of control and the T/C [2] was 117 % of control. For the same molecule, the T/C (dose: 200.0 mg/kg/injection, schedule: Q01DX009 (ip), vehicle: saline) was 163 % of control, the T/C [12] was 119 % of control and the T/C [3] was 107 % of control. The T/C [13] was 119 % of control.

With CCOC(=O)NC1=C(N2CC2C)C(=O)C(NC(=O)OCC)=C(N2CC2C)C1=O (stereo unspecified) the T/C (dose: 0.93 mg/kg/injection, schedule: Q01DX009 (ip), vehicle: Klucel (hydroxypropylcellulose) (HPC)) was 94 % of control and 100 % of control, the T/C (dose: 1.87 mg/kg/injection, schedule: Q01DX009 (ip), vehicle: Klucel (hydroxypropylcellulose) (HPC)) was 97 % of control and 107 % of control and the T/C (dose: 3.12 mg/kg/injection, schedule: Q04DX003 (ip), vehicle: Klucel (hydroxypropylcellulose) (HPC)) was 106 % of control. The T/C (dose: 3.75 mg/kg/injection, schedule: Q01DX009 (ip), vehicle: Klucel (hydroxypropylcellulose) (HPC)) was 98 % of control and 100 % of control, the T/C (dose: 6.25 mg/kg/injection, schedule: Q04DX003 (ip), vehicle: Klucel (hydroxypropylcellulose) (HPC)) was 95 % of control and the T/C (dose: 7.5 mg/kg/injection, schedule: Q01DX009 (ip), vehicle: Klucel (hydroxypropylcellulose) (HPC)) was 102 % of control and 91 % of control. For the same molecule, the T/C (dose: 12.5 mg/kg/injection, schedule: Q04DX003 (ip), vehicle: Klucel (hydroxypropylcellulose) (HPC)) was 106 % of control, the T/C (dose: 15.0 mg/kg/injection, schedule: Q01DX009 (ip), vehicle: Klucel (hydroxypropylcellulose) (HPC)) was 91 % of control and the T/C [14] was 112 % of control. For the same molecule, the T/C [15] was 110 % of control.

With COC(=O)CCCCn1ccc(=O)[nH]c1=O the T/C [8] was 100 % of control, the T/C [9] was 104 % of control and the T/C [10] was 100 % of control.

With CCCC[P+](CCCC)(CCCC)Cc1ccc(C(=O)Oc2ccc([N+](=O)[O-])cc2)cc1 the T/C (dose: 25.0 mg/kg/injection, schedule: Q01DX009 (ip), vehicle: Klucel (hydroxypropylcellulose) (HPC)) was 98 % of control, the T/C [14] was 91 % of control and the T/C (dose: 50.0 mg/kg/injection, schedule: Q01DX009 (ip), vehicle: Klucel (hydroxypropylcellulose) (HPC)) was 89 % of control. The T/C [15] was 93 % of control, the T/C [16] was 102 % of control and the T/C [17] was 96 % of control and 88 % of control.

With CC(N)CN (stereo unspecified) the T/C (dose: 100.0 mg/kg/injection, schedule: Q04DX002 (ip), vehicle: saline) was 100 % of control, the T/C (dose: 200.0 mg/kg/injection, schedule: Q04DX002 (ip), vehicle: saline) was 89 % of control and the T/C (dose: 400.0 mg/kg/injection, schedule: Q04DX002 (ip), vehicle: saline) was 103 % of control.

For Cc1c(N)c(C)c([N+](=O)[O-])c(C)c1N, the T/C [18] was 91 % of control, the T/C [19] was 98 % of control and the T/C [20] was 98 % of control.

For C=CC1(C)CCC2C(=CCC3C(C)(C(=O)O)CCCC23C)C1 (stereo unspecified) (tested in a mixture with another compound), the T/C [5] was 104 % of control, the T/C [6] was 95 % of control and the T/C [7] was 95 % of control.

For CCOC(=O)NNP(=O)(NNC(=O)OCC)c1ccccc1, the T/C [5] was 101 % of control, the T/C (dose: 100.0 mg/kg/injection, schedule: Q01DX009 (ip), vehicle: carboxymethylcellulose (CMC)) was 94 % of control and the T/C (dose: 100.0 mg/kg/injection, schedule: Q04DX002 (ip), vehicle: carboxymethylcellulose (CMC)) was 98 % of control. The T/C (dose: 100.0 mg/kg/injection, schedule: Q04DX003 (ip), vehicle: carboxymethylcellulose (CMC)) was 98 % of control, the T/C [6] was 104 % of control and the T/C (dose: 200.0 mg/kg/injection, schedule: Q01DX009 (ip), vehicle: carboxymethylcellulose (CMC)) was 94 % of control and 98 % of control. For the same molecule, the T/C (dose: 200.0 mg/kg/injection, schedule: Q04DX002 (ip), vehicle: carboxymethylcellulose (CMC)) was 91 % of control, the T/C (dose: 200.0 mg/kg/injection, schedule: Q04DX003 (ip), vehicle: carboxymethylcellulose (CMC)) was 102 % of control and the T/C [7] was 92 % of control. For the same molecule, the T/C (dose: 400.0 mg/kg/injection, schedule: Q01DX009 (ip), vehicle: carboxymethylcellulose (CMC)) was 108 % of control and 109 % of control, the T/C (dose: 400.0 mg/kg/injection, schedule: Q04DX002 (ip), vehicle: carboxymethylcellulose (CMC)) was 94 % of control and the T/C (dose: 400.0 mg/kg/injection, schedule: Q04DX003 (ip), vehicle: carboxymethylcellulose (CMC)) was 101 % of control.

With CCNC(C)(C)C(O)c1ccc(Cl)s1 (stereo unspecified) the T/C (dose: 100.0 mg/kg/injection, schedule: Q01DX009 (ip), vehicle: saline with Tween-80) was 98 % of control, the T/C [18] was 100 % of control and the T/C (dose: 200.0 mg/kg/injection, schedule: Q01DX009 (ip), vehicle: saline with Tween-80) was 98 % of control. The T/C [19] was 102 % of control and the T/C [20] was 103 % of control.

For OCCOc1ccccc1, the T/C (dose: 100.0 mg/kg/injection, schedule: Q04DX002 (ip), vehicle: saline with Tween-80) was 100 % of control, the T/C (dose: 200.0 mg/kg/injection, schedule: Q04DX002 (ip), vehicle: saline with Tween-80) was 95 % of control and the T/C (dose: 400.0 mg/kg/injection, schedule: Q04DX002 (ip), vehicle: saline with Tween-80) was 91 % of control.

For CN(C)c1ccc(C=Nc2ccccc2O)cc1, the T/C [1] was 107 % of control, the T/C [2] was 96 % of control and the T/C [3] was 97 % of control.

With NNC(=S)N/N=C/c1ccc([N+](=O)[O-])s1 the T/C [11] was 87 % of control, the T/C [12] was 89 % of control and the T/C [13] was 95 % of control.

With Cn1cnc2cc(N=Cc3ccc(N(CCCl)CCCl)cc3)ccc21 the T/C [8] was 106 % of control, the T/C [9] was 106 % of control and the T/C [10] was 109 % of control.

In the case of CCC1CN2C(=N1)c1cc(Cl)ccc1-c1ccc(Cl)cc12 (stereo unspecified), the T/C [16] was 95 % of control, the T/C [17] was 101 % of control and the T/C [21] was 98 % of control. For the same molecule, the T/C (dose: 200.0 mg/kg/injection, schedule: Q04DX003 (ip), vehicle: Klucel (hydroxypropylcellulose) (HPC)) was 103 % of control and the T/C (dose: 400.0 mg/kg/injection, schedule: Q04DX003 (ip), vehicle: Klucel (hydroxypropylcellulose) (HPC)) was 116 % of control.

CCCC(O)C(C)[N+](=O)[O-] (stereo unspecified) was tested, and the T/C [11] was 96 % of control, the T/C [12] was 102 % of control and the T/C [13] was 96 % of control.

In the case of CON(C)CCO, the T/C (dose: 25.0 mg/kg/injection, schedule: Q01DX001 (ip), vehicle: Klucel (hydroxypropylcellulose) (HPC)) was 107 % of control, the T/C (dose: 50.0 mg/kg/injection, schedule: Q01DX001 (ip), vehicle: Klucel (hydroxypropylcellulose) (HPC)) was 107 % of control and the T/C (dose: 100.0 mg/kg/injection, schedule: Q01DX001 (ip), vehicle: Klucel (hydroxypropylcellulose) (HPC)) was 105 % of control and 107 % of control. The T/C (dose: 200.0 mg/kg/injection, schedule: Q01DX001 (ip), vehicle: Klucel (hydroxypropylcellulose) (HPC)) was 102 % of control.

With COc1ccc(C=O)cc1OC the T/C [16] was 101 % of control, the T/C [21] was 102 % of control and the T/C (dose: 400.0 mg/kg/injection, schedule: Q01DX009 (ip), vehicle: Klucel (hydroxypropylcellulose) (HPC)) was 96 % of control.

In the case of O=C(COc1cccc(Cl)c1)NCc1ccc(NC(=O)c2cccc(S(=O)(=O)F)c2)cc1, the T/C (dose: 25.0 mg/kg/injection, schedule: Q04DX002 (ip), vehicle: Klucel (hydroxypropylcellulose) (HPC)) was 111 % of control, the T/C (dose: 50.0 mg/kg/injection, schedule: Q04DX002 (ip), vehicle: Klucel (hydroxypropylcellulose) (HPC)) was 107 % of control and the T/C [8] was 100 % of control.
